Laboratory results taken from patent US12679802B2, “Malonamides and their use as herbicides” (BASF SE, priority 2021, dated 2026).

How the values were obtained:
APESV = experiment: greenhouse herbicidal test, pre-emergence treatment; format: in vivo, Apera spica-venti; conditions: pre-emergence method, scale from 0 to 100
Source text: (§1) The seeds of the test plants were sown separately for each species. For the pre-emergence treatment, the active ingredients, which had been suspended or emulsified in water, were applied directly after sowing by means of finely distributing nozzles. The containers were irrigated gently to promote germination and growth and subsequently covered with transparent plastic hoods until the test plants had rooted. This cover caused uniform germination of the test plants, unless this had been impaired by the active ingredients. For the post-emergence treatment, the test plants were first grown to a height of 3 to 15 cm, depending on the plant habit, and only then treated with the active ingredients which had been suspended or emulsified in water. For this purpose, the test plants were either sown directly and grown in the same containers, or they were first grown separately as seedlings and transplanted into the test containers a few days prior to treatment. Depending on the species, the test plants were kept at 10-25° C. or 20-35° C., respectively. The test period extended over 2 to 4 weeks. During this time, the test plants were tended, and their response to the individual treatments was evaluated. Evaluation was carried out using a scale from 0 to 100. […]

AVEFA = experiment: greenhouse herbicidal test, post-emergence treatment; format: in vivo, Avena fatua; conditions: post-emergence method, scale from 0 to 100
Source text: The seeds of the test plants were sown separately for each species. For the pre-emergence treatment, the active ingredients, which had been suspended or emulsified in water, were applied directly after sowing by means of finely distributing nozzles. The containers were irrigated gently to promote germination and growth and subsequently covered with transparent plastic hoods until the test plants had rooted. This cover caused uniform germination of the test plants, unless this had been impaired by the active ingredients. For the post-emergence treatment, the test plants were first grown to a height of 3 to 15 cm, depending on the plant habit, and only then treated with the active ingredients which had been suspended or emulsified in water. For this purpose, the test plants were either sown directly and grown in the same containers, or they were first grown separately as seedlings and transplanted into the test containers a few days prior to treatment. Depending on the species, the test plants were kept at 10-25° C. or 20-35° C., respectively. The test period extended over 2 to 4 weeks. During this time, the test plants were tended, and their response to the individual treatments was evaluated. Evaluation was carried out using a scale from 0 to 100. 100 means no emergence of the test plants, or complete destruction of at least the aerial moieties, and 0 means no damage, or normal course of growth. A good herbicidal activity is given at values of 65 to 90 and a very good herbicidal activity is given at values of 90 to 100. The test plants used in the greenhouse experiments were of the following species: [table]

AMARE = experiment: as above; format: in vivo, Amaranthus retroflexus; conditions: post-emergence method, application rate 0.500 kg/ha; scale from 0 to 100
Source text: as §1

SETVI = experiment: as above; format: in vivo, Setaria viridis; conditions: post-emergence method, application rate 1.000 kg/ha; scale from 0 to 100
Source text: as §1

ECHCG [1] = experiment: as above; format: in vivo, Echinocloa crus-galli; conditions: post-emergence method, application rate 1.000 kg/ha; scale from 0 to 100
Source text: as §1

ABUTH = experiment: as above; format: in vivo, Abutilon theophrasti; conditions: post-emergence method, application rate 0.250 kg/ha; scale from 0 to 100
Source text: as §1

ECHCG [2] = experiment: greenhouse herbicidal test, pre-emergence treatment; format: in vivo, Echinocloa crus-galli; conditions: pre-emergence method, scale from 0 to 100
Source text: as §1

ALOMY = experiment: greenhouse herbicidal test, post-emergence treatment; format: in vivo, Alopercurus myosuroides; conditions: post-emergence method, scale from 0 to 100
Source text: as §1

With `COC(=O)C[C@H](C)NC(=O)C(F)(F)C(=O)Nc1cc(Cl)cc(Cl)c1` [I.2, methyl (3S)-3-[[3-(3,5-dichloroanilino)-2,2-difluoro-3-oxo-propanoyl]amino]butanoate] the “herbicidal activity against APESV” value (APESV; application rate 0.500 kg/ha) was “good (A good herbicidal activity is given at values of 65 to 90)”.
For `COC(=O)CCCNC(=O)C(F)(F)C(=O)Nc1cc(Cl)cc(Cl)c1` [I.1, methyl 4-[[3-(3,5-dichloroanilino)-2,2-difluoro-3-oxo-propanoyl]amino]butanoate], the “herbicidal activity against AVEFA” value (AVEFA; application rate 0.500 kg/ha) was “good (A good herbicidal activity is given at values of 65 to 90)”.
In the case of `COC(=O)CC(C)NC(=O)C(F)(C(=O)Nc1cc(Cl)cc(Cl)c1)C(C)O` (stereo not shown) [I.6], the “herbicidal activity against AMARE” value (AMARE) is reported as “very good (a very good herbicidal activity is given at values of 90 to 100)”.
For `COC(=O)CC(C)NC(=O)C(F)(Br)C(=O)Nc1cc(Cl)cc(Cl)c1` (stereo not shown) [I.12], the “herbicidal activity against AVEFA” value (AVEFA; application rate 1.000 kg/ha) was “very good (a very good herbicidal activity is given at values of 90 to 100)”, the “herbicidal activity against SETVI” value (SETVI) was “very good (a very good herbicidal activity is given at values of 90 to 100)” and the “herbicidal activity against ECHCG” value (ECHCG [1]) was “very good (a very good herbicidal activity is given at values of 90 to 100)”.
For `CC(CC(=O)OC(C)C)NC(=O)C(C)(F)C(=O)Nc1cc(F)cc(Cl)c1` (stereo not shown) [I.16], the “herbicidal activity against APESV” value (APESV; application rate 0.250 kg/ha) was “good (A good herbicidal activity is given at values of 65 to 90)”.
`COC(=O)[C@@H]1CCC(NC(=O)C(F)(F)C(=O)Nc2cc(Cl)cc(Cl)c2)C1` (stereo partly drawn) [I.3, methyl (1R)-3-[[3-(3,5-dichloroanilino)-2,2-difluoro-3-oxo-propanoyl]amino]cyclopentanecarboxylate] was tested, and the “herbicidal activity against ABUTH” value (ABUTH) was “good (A good herbicidal activity is given at values of 65 to 90)”, the “herbicidal activity against ECHCG” value (ECHCG [2]; application rate 0.250 kg/ha) was “good (A good herbicidal activity is given at values of 65 to 90)” and the “herbicidal activity against ALOMY” value (ALOMY; application rate 0.250 kg/ha) was “very good (a very good herbicidal activity is given at values of 90 to 100)”.
For `COC(=O)C[C@H](C)NC(=O)C(F)C(=O)Nc1cc(Cl)cc(Cl)c1` (stereo partly drawn) [I.5, methyl (3S)-3-[[3-(3,5-dichloroanilino)-2-fluoro-3-oxo-propanoyl]amino]butanoate], the “herbicidal activity against ECHCG” value (ECHCG [2]; application rate 1.000 kg/ha) was “good (A good herbicidal activity is given at values of 65 to 90)”, the “herbicidal activity against AVEFA” value (AVEFA; application rate 1.000 kg/ha) was “good (A good herbicidal activity is given at values of 65 to 90)” and the “herbicidal activity against ALOMY” value (ALOMY; application rate 1.000 kg/ha) was “very good (a very good herbicidal activity is given at values of 90 to 100)”.
